Where two headings read alike, the source gives them in different places.
What was measured:
human 5-HT2A receptor = biological target: T1, human 5-HT2A receptor (Homo sapiens, UniProt P28223); test: Intracellular calcium response (FLIPR) in CHO cells expressing human 5-HT2A receptor, agonist and antagonist modes; format: cell-based
T1 construct: expressed in transfected cells; host or cells: CHO
Experimental: Methods and Procedure: Selectivity for the 5-HT2A receptor was assessed by measuring [Ca^2+]; in a CHO recombinant cell line stably expressing the human 5-HT2A receptor, using Fluorometric Imaging Plate Reader (FLIPR TETRA, Molecular Devices).
The day before the experiment, CHO cells were seeded into clear-bottom 384-well plates at a density of 10,000 cells per well, in F-12K Medium (ThermoFisher #21127) supplemented with 10% dialyzed fetal bovine serum, and grown overnight at 37° C., 5% CO2.
On the day of the experiment, the medium was replaced with assay buffer (20 mM HEPES, 145 mM NaCl, 5 mM KCl, 5.5 mM glucose, 1 mM MgCl2, 2 mM CaCl2 and 2.5 mM probenecid, pH 7.4) containing the cytoplasmic Ca^2+ indicator Fluo-4 AM at 2 μM and 0.02% Pluronic F-127. After an incubation of 45-60 minutes at 37° C., 0% CO2, cells were washed by Microplate Washer (BIOTEK) 384 with assay buffer, and the plate was transferred in the FLIPR TETRA. Then, intracellular fluorescence was measured in real time by FLIPR TETRA (excitation wavelength at 470-495 nm, emission wavelength at 515-575 nm), using a dual addition protocol.
In the first addition, test compounds (11 points of 1:4 serial dilution, 0.5% DMSO final) were added to the cell plate to evaluate their effect on intracellular calcium levels. In the event of a response, the signal was elaborated for the determination of pEC50/EC50 values. […] Inhibition of 5-HT response vs. vehicle effect (0.5% DMSO) was elaborated for the determination of pIC50/IC50 values. […] A CRC of ketanserin was used as the internal antagonist control.

CYP2D6 = biological target: T2, CYP2D6 (Homo sapiens, UniProt P10635); test: CYP450 inhibition, fluorescent probe, recombinant microsomes: CYP2D6; format: in vitro ADME
T2 construct: host or cells: recombinant microsomes
Experimental: Methods and Procedure: The study was performed in agreement with previously described procedures to assure data integrity and adherence to GLP standards. Briefly, recombinant human CYP450 isoenzymes were used to metabolize pro-fluorescent probe substrates to fluorescent products. IC50 values determined from the effect of test compounds on the metabolism of these probe substrates were then used to determine inhibitory potency against CYP450 isoforms.
The test system was based on a three-step procedure with a “mix and read” format, where PGP-432,TI reaction and reading were performed at 37° C. […] Fluorescence was measured in kinetic mode (1 read/minutes for 10 minutes), and the fluorescence rate was calculated. […]
Microsomes were added to the buffer prior to the substrate addition. […] For fluorescence measurement, 10 μL/well of the test compounds were transferred from the compound plate to the assay plate using Biomek FX and the appropriate protocol. […]
10 μL/well of the cofactor was then added to the assay plate using the Multidrop before placing the assay plate in the plate reader EnVision to measure fluorescence. […]
Next, 10 μL/well from the compound plate was added and incubated for 10 minutes at 37° C. on a plate shaker, while a mixture of Vivid Substrate and Vivid NADP+ in Vivid CYP450 Reaction Buffer was prepared. […] Regarding data analysis, the inhibition effect is expressed as a percentage. […]

T1 sequence (P28223 whole entry): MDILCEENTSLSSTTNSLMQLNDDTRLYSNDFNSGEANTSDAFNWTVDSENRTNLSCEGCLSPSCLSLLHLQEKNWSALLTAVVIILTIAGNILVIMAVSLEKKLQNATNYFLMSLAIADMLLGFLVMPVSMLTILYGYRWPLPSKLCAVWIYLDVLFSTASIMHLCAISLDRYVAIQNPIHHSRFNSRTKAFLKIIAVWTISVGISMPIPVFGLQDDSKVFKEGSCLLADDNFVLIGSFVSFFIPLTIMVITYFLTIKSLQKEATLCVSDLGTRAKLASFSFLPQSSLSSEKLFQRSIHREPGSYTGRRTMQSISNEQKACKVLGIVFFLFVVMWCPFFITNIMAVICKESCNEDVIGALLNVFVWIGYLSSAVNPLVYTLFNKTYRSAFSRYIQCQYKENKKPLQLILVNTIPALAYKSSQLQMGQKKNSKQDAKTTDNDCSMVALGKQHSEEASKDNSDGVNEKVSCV
T2 sequence (P10635 whole entry): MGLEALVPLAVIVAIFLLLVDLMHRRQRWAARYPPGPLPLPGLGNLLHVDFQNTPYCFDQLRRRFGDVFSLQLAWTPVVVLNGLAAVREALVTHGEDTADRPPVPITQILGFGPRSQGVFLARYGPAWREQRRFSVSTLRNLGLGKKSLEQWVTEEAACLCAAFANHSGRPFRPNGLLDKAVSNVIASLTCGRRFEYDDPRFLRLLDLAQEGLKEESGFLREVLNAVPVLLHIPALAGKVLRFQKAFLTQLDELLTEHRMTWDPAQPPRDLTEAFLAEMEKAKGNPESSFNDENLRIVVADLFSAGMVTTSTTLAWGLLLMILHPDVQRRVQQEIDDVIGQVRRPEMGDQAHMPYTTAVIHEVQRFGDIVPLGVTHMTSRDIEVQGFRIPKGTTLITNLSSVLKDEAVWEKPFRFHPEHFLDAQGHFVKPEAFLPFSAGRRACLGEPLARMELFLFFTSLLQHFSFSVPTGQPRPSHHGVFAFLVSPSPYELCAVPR

Structure (SMILES): CNC(C)Cc1ccc2c(c1)OCO2 (stereo not drawn) [MDMA, reference compound]
- EC50 (human 5-HT2A receptor; 5-HT2A agonist selectivity (pEC50), agonist mode, CHO cells, calcium response): > 50.1 µM
- EC50 (human 5-HT2A receptor; 5-HT2A antagonist selectivity (represented as pEC50), antagonist mode, versus serotonin EC80): > 50.1 µM
- IC50 (CYP2D6): 1.6 µM

Structure (SMILES): Clc1ccc(C23CNC(CO2)C3)cc1Cl (stereo not drawn) [522A, 1-(3,4-dichlorophenyl)-2-oxa-5-azabicyclo[2.2.1]heptane]
- EC50 (human 5-HT2A receptor; agonist mode, CHO cells, calcium response, read-out: 5-HT2A agonist selectivity (pEC50) (converted)): 50.1 µM
- EC50 (human 5-HT2A receptor; antagonist mode, versus serotonin EC80, read-out: 5-HT2A antagonist selectivity (represented as pEC50) (converted)): 3.98 µM
- IC50 (CYP2D6; recombinant human CYP2D6, read-out: CYP450 Inhibition (IC50), CYP2D6): 2.87 µM
